Test results reported in PubChem BioAssay AID1963434 (Molecular Pharmacology Branch, DTP, NCI, 2024).
Values joined by “and” are separate entries in the source; they are usually repeats but may differ in a detail not shown here. Identical values can stand only once.

System: 755483-174-R-J1-PDC complex spheroid growth, percent test/control
Assay: Anticancer human tumor 755483-174-R-J1-PDC patient-derived rhabdomyosarcoma cell line growth inhibition [Asc]
Settings: for viability, T/C: stronger effect = lower value; active = viability on the fitted dose curve at most 10% of control; inactive = the rest
Outline: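 Tumor cells were grown as complex spheroids with human endothelial cells (HUVEC) and human mesenchymal stem cells as stroma. Agents were tested alone and in combination, in half-log steps down from the clinical Cmax, or from 10 microM where Cmax was unknown.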
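Note: spheroids exposed to compounds for seven days before readout.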

CNC(C)C(=O)NC1CN(S(=O)(=O)c2cccc(S(=O)(=O)N3CCC4CCC(C(=O)NC(c5ccccc5)c5ccccc5)N4C(=O)C(NC(=O)C(C)NC)C3)c2)CCC2CCC(C(=O)NC(c3ccccc3)c3ccccc3)N2C1=O (centres undefined) + Cc1c(S(C)(=O)=O)c(-c2cc(F)cc(N3CCN(c4ccc(NS(=O)(=O)c5ccc(NC(CCN6CCC(C(=O)OCCCP(=O)(O)O)CC6)CSc6ccccc6)c(S(=O)(=O)C(F)(F)F)c5)cc4)CC3)c2)c(-c2ccc(Cl)cc2)n1C(C)C
< 3.16 nM: IC50 (curve of first compound, second compound 0.1 µM) | IC50 (curve of first compound, second compound 0.316 µM) | IC50 (curve of first compound, second compound 1 µM) | IC50 (curve of first compound, second compound 3.16 µM) | IC50 (curve of first compound, second compound 10 µM)
inactive: viability, T/C (second compound 0.1 µM, first compound 0.00316 µM) 27.1% | viability, T/C (second compound 0.1 µM, first compound 0.01 µM) 20% | viability, T/C (second compound 0.1 µM, first compound 0.0316 µM) 39.1% | viability, T/C (second compound 0.1 µM, first compound 0.1 µM) 20.2% | viability, T/C (second compound 0.1 µM, first compound 0.316 µM) 13.6% | viability, T/C (second compound 0.1 µM, first compound 1 µM) 12.2% | viability, T/C (second compound 0.316 µM, first compound 0.00316 µM) 36.2% | viability, T/C (second compound 0.316 µM, first compound 0.01 µM) 24.1% | viability, T/C (second compound 0.316 µM, first compound 0.0316 µM) 15.8% | viability, T/C (second compound 0.316 µM, first compound 0.1 µM) 24.4% | viability, T/C (second compound 0.316 µM, first compound 0.316 µM) 14.7% | viability, T/C (second compound 0.316 µM, first compound 1 µM) 12.1% | viability, T/C (second compound 1 µM, first compound 0.00316 µM) 29.8% | viability, T/C (second compound 1 µM, first compound 0.01 µM) 23.5% | viability, T/C (second compound 1 µM, first compound 0.0316 µM) 18.2% | viability, T/C (second compound 1 µM, first compound 0.1 µM) 22.5% | viability, T/C (second compound 1 µM, first compound 0.316 µM) 11.4% | viability, T/C (second compound 1 µM, first compound 1 µM) 10.7% | viability, T/C (second compound 3.16 µM, first compound 0.00316 µM) 23.7% | viability, T/C (second compound 3.16 µM, first compound 0.01 µM) 15.9% | viability, T/C (second compound 3.16 µM, first compound 0.0316 µM) 16.7% | viability, T/C (second compound 3.16 µM, first compound 0.1 µM) 12% | viability, T/C (second compound 3.16 µM, first compound 0.316 µM) 9.91% | viability, T/C (second compound 3.16 µM, first compound 1 µM) 26.8% | viability, T/C (second compound 10 µM, first compound 0.00316 µM) 26.3% | viability, T/C (second compound 10 µM, first compound 0.01 µM) 14.5% | viability, T/C (second compound 10 µM, first compound 0.0316 µM) 16.1% | viability, T/C (second compound 10 µM, first compound 0.1 µM) 14.2% | viability, T/C (second compound 10 µM, first compound 0.316 µM) 16.2% | viability, T/C (second compound 10 µM, first compound 1 µM) 7.68%

COc1c(OCCCN2CCOCC2)ccc2c3n(c(=NC(=O)c4cnc(N)nc4)nc12)CCN3
active: viability, T/C (compound 1 µM) 5.83% and 6.96% and 8.42%
31.3 nM and 46.2 nM and 104 nM: IC50 (curve of compound)
inactive: viability, T/C (compound 0.00316 µM) 81.5% and 75.7% and 125% | viability, T/C (compound 0.01 µM) 68.4% and 71.7% and 105% | viability, T/C (compound 0.0316 µM) 48.4% and 58.9% and 88.5% | viability, T/C (compound 0.1 µM) 32.9% and 32.1% and 51.3% | viability, T/C (compound 0.316 µM) 11.3% and 12% and 19.7%

NC1CCC(NC2CC2c2ccccc2)CC1 (centres undefined)
inactive: viability, T/C (compound 0.000316 µM) 90.9% and 70.4% and 80.8% | viability, T/C (compound 0.001 µM) 80.2% and 77.2% and 82.2% | viability, T/C (compound 0.00316 µM) 77.8% and 102% and 61.7% | viability, T/C (compound 0.01 µM) 82.8% and 87.8% and 74.4% | viability, T/C (compound 0.0316 µM) 68.1% and 94.5% and 113% | viability, T/C (compound 0.1 µM) 79.2% and 83.4% and 66.6%
> 100 nM: IC50 (curve of compound)

C=C(F)C(=O)N1CCN(c2nc(OCC3CCCN3C)nc3c2CCN(c2cccc4cccc(Cl)c24)C3)CC1CC#N (centres undefined) + CCN1C(C(=O)NC23CCC(C(=O)O)(CC2)CC3)C(c2cccc(Cl)c2F)C2(C(=O)Nc3cc(Cl)ccc32)C12CCCCC2
2170 nM: IC50 (curve of first compound, second compound 0.03 µM)
1890 nM: IC50 (curve of first compound, second compound 0.949 µM)
active: viability, T/C (second compound 0.03 µM, first compound 10 µM) 0.12% | viability, T/C (second compound 0.0949 µM, first compound 10 µM) 0.13% | viability, T/C (second compound 0.3 µM, first compound 10 µM) 0.51% | viability, T/C (second compound 0.949 µM, first compound 10 µM) 0.31% | viability, T/C (second compound 3 µM, first compound 10 µM) 0.24%
1600 nM: IC50 (curve of first compound, second compound 3 µM)
1430 nM: IC50 (curve of first compound, second compound 0.3 µM)
1660 nM: IC50 (curve of first compound, second compound 0.0949 µM)
inactive: viability, T/C (second compound 0.03 µM, first compound 0.0316 µM) 81% | viability, T/C (second compound 0.03 µM, first compound 0.1 µM) 120% | viability, T/C (second compound 0.03 µM, first compound 0.316 µM) 91.5% | viability, T/C (second compound 0.03 µM, first compound 1 µM) 89.4% | viability, T/C (second compound 0.03 µM, first compound 3.16 µM) 30.9% | viability, T/C (second compound 0.0949 µM, first compound 0.0316 µM) 91.9% | viability, T/C (second compound 0.0949 µM, first compound 0.1 µM) 93.2% | viability, T/C (second compound 0.0949 µM, first compound 0.316 µM) 83.1% | viability, T/C (second compound 0.0949 µM, first compound 1 µM) 66.6% | viability, T/C (second compound 0.0949 µM, first compound 3.16 µM) 29.6% | viability, T/C (second compound 0.3 µM, first compound 0.0316 µM) 82.9% | viability, T/C (second compound 0.3 µM, first compound 0.1 µM) 106% | viability, T/C (second compound 0.3 µM, first compound 0.316 µM) 87% | viability, T/C (second compound 0.3 µM, first compound 1 µM) 56.6% | viability, T/C (second compound 0.3 µM, first compound 3.16 µM) 28.5% | viability, T/C (second compound 0.949 µM, first compound 0.0316 µM) 88.4% | viability, T/C (second compound 0.949 µM, first compound 0.1 µM) 97.3% | viability, T/C (second compound 0.949 µM, first compound 0.316 µM) 89.2% | viability, T/C (second compound 0.949 µM, first compound 1 µM) 69.3% | viability, T/C (second compound 0.949 µM, first compound 3.16 µM) 33.8% | viability, T/C (second compound 3 µM, first compound 0.0316 µM) 79.5% | viability, T/C (second compound 3 µM, first compound 0.1 µM) 81.7% | viability, T/C (second compound 3 µM, first compound 0.316 µM) 86.4% | viability, T/C (second compound 3 µM, first compound 1 µM) 65.7% | viability, T/C (second compound 3 µM, first compound 3.16 µM) 25.3%
